IC50 data for eleven compounds are collected here from US20210323981A1, “FREE AMINO COMPOUNDS FOR THE TREATMENT AND PROPHYLAXIS OF BACTERIAL INFECTION” (Hoffmann-La Roche Inc., priority 2018, published 2021).

Format in all cases: cell-based
For one test, the system named is S. aureus (ATCC29213). Put plainly: 50% growth inhibitory concentration (IC50) determination assay, S. aureus. The following applies: Staphylococcus aureus, growth inhibition, Iso-Sensitest broth, OD 600 nm over 16 h, <0.098 μM = detection limit. The method, then: (§1) The in vitro antimicrobial activity of the compounds against S. aureus (ATCC29213), K. pneumoniae (ATCC10031), and A. baumannii (ATCC17978), was determined according to the following procedure: The assay used a 10-points Iso-Sensitest broth medium to measure quantitatively the in vitro activity of the compounds against S. aureus ATCC29213, K. pneumoniae ATCC 10031, and A. baumannii ATCC17978. Stock compounds in DMSO were serially two-fold diluted (range from 50 to 0.097 μM final concentration) in 384 wells microtiter plates and inoculated with 49 μL the bacterial suspension in Iso-Sensitest broth medium to have a final cell concentration of ˜5×10^5 CFU/mL in a final volume/well of 50 μL/well. Microtiter plates were incubated at 35±2° C. Bacterial cell growth was determined with the measurement of optical density at k=600 nm each 20 minutes over a time course of 16 h. Growth inhibition was calculated during the logarithmic growth of the bacterial cells with determination of the concentration inhibiting 50% (IC50) of the growth.

For test [1], the system named is K. pneumoniae (ATCC10031). In words: 50% growth inhibitory concentration (IC50) determination assay, K. pneumoniae. The following applies: Klebsiella pneumoniae, growth inhibition, Iso-Sensitest broth, OD 600 nm over 16 h, <0.098 μM = detection limit. The method, then: as §1
The next test concerns A. baumannii (ATCC17978). In words: 50% growth inhibitory concentration (IC50) determination assay, A. baumannii. The following applies: Acinetobacter baumannii, growth inhibition, Iso-Sensitest broth, OD 600 nm over 16 h, <0.098 = detection limit. As for the experimental part:
as §1

Consider `CNc1cc(F)c(F)c2c1[nH]c1ncc(-c3cnc4c(c3)c(=O)c(C(=O)O)cn4C)c(N3C[C@H]4CCC[C@@]4(N)C3)c12` (stereo in doubt) [Example 1.12, trans-6-(5,6-Difluoro-8-(methylamino)-4-[3a-amino-1,3,4,5,6,6a-hexahydrocyclopenta[c]pyrrol-2-yl]-9H-pyrido[2,3-b]indol-3-yl)-1-methyl-4-oxo-1,8-naphthyridine-3-carboxylic acid], for which the IC50 (in general, the midpoint of a concentration-inhibition curve) with S. aureus (ATCC29213) is 0.448 µM; in test [1] it was < 0.098 µM; in the test on A. baumannii (ATCC17978) it was 0.889 µM.

As to `CNc1cc(F)c(Cl)c2c1[nH]c1ncc(-c3cnc4c(c3)c(=O)c(C(=O)O)cn4C)c(N3CC[C@@]4(C[C@@H]4N)C3)c12` [Example 4.03, 6-[4-[(2S,3R)-2-amino-5-azaspiro[2.4]heptan-5-yl]-5-chloro-6-fluoro-8-(methylamino)-9H-pyrido[2,3-b]indol-3-yl]-1-methyl-4-oxo-1,8-naphthyridine-3-carboxylic acid], the IC50 in the test with S. aureus (ATCC29213) is < 0.098 µM; in test [1] it was < 0.098 µM; in the test on A. baumannii (ATCC17978), 0.0553 µM.

On to `CNc1cc(F)c(C#N)c2c1[nH]c1ncc(-c3cnc4c(c3)c(=O)c(C(=O)O)cn4C)c(N3CC[C@]4(C[C@H]4N)C3)c12` [Example 5.02, 6-[4-[(2R,3S)-2-amino-5-azaspiro[2.4]heptan-5-yl]-5-cyano-6-fluoro-8-(methylamino)-9H-pyrido[2,3-b]indol-3-yl]-1-methyl-4-oxo-1,8-naphthyridine-3-carboxylic acid], for which the IC50 is < 0.098 µM in the test on S. aureus (ATCC29213), < 0.098 µM in test [1] and 0.417 µM in the test on A. baumannii (ATCC17978).

In the case of `CNc1cc(F)c(F)c2c1[nH]c1ncc(-c3cnc4c(c3)c(=O)c(C(=O)O)cn4C)c(N3CC4CC4(CN)C3)c12` (stereo not drawn) [Example 1.06, 6-[4-[1-(Aminomethyl)-3-azabicyclo[3.1.0]hexan-3-yl]-5,6-difluoro-8-(methylamino)-9H-pyrido[2,3-b]indol-3-yl]-1-methyl-4-oxo-1,8-naphthyridine-3-carboxylic acid], the values for the IC50 (with S. aureus (ATCC29213); in test [1]; with A. baumannii (ATCC17978)) were 0.342 µM, < 0.098 µM and 2.48 µM, respectively.

In the case of `CNc1cc(F)c(F)c2c1[nH]c1ncc(-c3cnc4c(c3)c(=O)c(C(=O)O)cn4C)c(N3CC[C@@H](N)C3)c12` [Example 1.17, 6-[4-[(3R)-3-Aminopyrrolidin-1-yl]-5,6-difluoro-8-(methylamino)-9H-pyrido[2,3-b]indol-3-yl]-1-methyl-4-oxo-1,8-naphthyridine-3-carboxylic acid], the half-maximal inhibitory concentration (IC50) is 0.532 µM in the test on S. aureus (ATCC29213), < 0.098 µM in test [1] and 2.95 µM in the test on A. baumannii (ATCC17978).

`CNc1cc(F)c(Cl)c2c1[nH]c1ncc(-c3cnc4c(c3)c(=O)c(C(=O)O)cn4C)c(N3CC[C@@]4(C[C@H]4N)C3)c12` [Example 4.01, 6-[4-[(2R,3R)-2-Amino-5-azaspiro[2.4]heptan-5-yl]-5-chloro-6-fluoro-8-(methylamino)-9H-pyrido[2,3-b]indol-3-yl]-1-methyl-4-oxo-1,8-naphthyridine-3-carboxylic acid]: the IC50 in the test on S. aureus (ATCC29213) is < 0.098 µM; in test [1] it was < 0.098 µM; with A. baumannii (ATCC17978), 0.0765 µM.

In the case of `CNc1cc(F)c(F)c2c1[nH]c1ncc(-c3cnc4c(c3)c(=O)c(C(=O)O)cn4C)c(N3CC[C@]4(C[C@@H]4N)C3)c12` [Example 3.04, 6-[4-[(2S,3S)-2-Amino-5-azaspiro[2.4]heptan-5-yl]-5,6-difluoro-8-(methylamino)-9H-pyrido[2,3-b]indol-3-yl]-1-methyl-4-oxo-1,8-naphthyridine-3-carboxylic acid], the IC50 in the test on S. aureus (ATCC29213) is < 0.098 µM; in test [1], < 0.098 µM; with A. baumannii (ATCC17978), 0.175 µM.

In the case of `CNc1cc(F)c(C#N)c2c1[nH]c1ncc(-c3cnc4c(c3)c(=O)c(C(=O)O)cn4C)c(N3CC[C@@]4(C[C@@H]4N)C3)c12` [Example 5.01, 6-[4-[(2S,3R)-2-Amino-5-azaspiro[2.4]heptan-5-yl]-5-cyano-6-fluoro-8-(methylamino)-9H-pyrido[2,3-b]indol-3-yl]-1-methyl-4-oxo-1,8-naphthyridine-3-carboxylic acid], the IC50 in the test with S. aureus (ATCC29213) is < 0.098 µM; in test [1] it was < 0.098 µM; in the test with A. baumannii (ATCC17978) it was 0.477 µM.

Turning to `CNc1cc(F)c(F)c2c1[nH]c1ncc(-c3cnc4c(c3)c(=O)c(C(=O)O)cn4C)c(N3C[C@@H]4[C@@H](N)[C@@H]4C3)c12` [Example 1.08, 6-[5,6-Difluoro-8-(methylamino)-4-[rel-(1S,5R)-6-amino-3-azabicyclo[3.1.0]hexan-3-yl]-9H-pyrido[2,3-b]indol-3-yl]-1-methyl-4-oxo-1,8-naphthyridine-3-carboxylic acid], the IC50 in the test with S. aureus (ATCC29213) was 0.314 µM; in test [1] it was < 0.098 µM; in the test with A. baumannii (ATCC17978) it was 0.654 µM.

For `CNc1cc(F)c(Cl)c2c1[nH]c1ncc(-c3cnc4c(c3)c(=O)c(C(=O)O)cn4C)c(N3CC[C@]4(C[C@@H]4N)C3)c12` [Example 4.02, 6-[4-[(2S,3S)-2-amino-5-azaspiro[2.4]heptan-5-yl]-5-chloro-6-fluoro-8-(methylamino)-9H-pyrido[2,3-b]indol-3-yl]-1-methyl-4-oxo-1,8-naphthyridine-3-carboxylic acid], the IC50 is < 0.098 µM in the test on S. aureus (ATCC29213), < 0.098 µM in test [1] and 0.0973 µM in the test with A. baumannii (ATCC17978).

Take `CNc1cc(F)c(F)c2c1[nH]c1ncc(-c3cnc4c(c3)c(=O)c(C(=O)O)cn4C)c(N3CCC4(C[C@H]4N)C3)c12` (mixture of isomers) [Example 2.02, Cis-6-[4-(2-amino-5-azaspiro[2.4]heptan-5-yl)-5,6-difluoro-8-(methylamino)-9H-pyrido[2,3-b]indol-3-yl]-1-methyl-4-oxo-1,8-naphthyridine-3-carboxylic acid]: the IC50 in the test on S. aureus (ATCC29213) is < 0.098 µM; in test [1], < 0.098 µM; in the test with A. baumannii (ATCC17978), 0.261 µM.
